Data from patent publication US20220259593A1, “CONTROL OF MAMMALIAN GENE DOSAGE USING CRISPR” (The Regents of the University of California, priority 2019, published 2022).

Experiments:
[1] = test system: K562 CRISPRi cells; assay: Perturb-seq pooled growth measurement (sgRNA counts, growth phenotype γ, relative activity); type: cell-based, human; conditions: γ relative to perfectly matched sgRNA (_00) of the same gene, day 10
[2] = test system: K562 CRISPRi cells; assay: as above; type: cell-based, human; conditions: for gamma_day5 / gamma_day10: pooled growth phenotype γ of the Perturb-seq sgRNA; for gamma_day5: day 5, K562 CRISPRi cells; for gamma_day10: day 10, K562 CRISPRi cells; for relative_activity_day5: γ relative to perfectly matched sgRNA (_00) of the same gene, day 5; for Perturb-seq pooled growth sgRNA counts, d5 / Perturb-seq pooled growth sgRNA counts, d10 / Perturb-seq pooled growth sgRNA counts, T0: sequencing read counts; for Perturb-seq pooled growth sgRNA counts, d5: 5 days of growth (day seven after transduction); for Perturb-seq pooled growth sgRNA counts, d10: 10 days of growth (day twelve after transduction); for Perturb-seq pooled growth sgRNA counts, T0: T0 = day two after transduction
Outline: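 CRISPRi K562 cells from the Perturb-seq transduced pool; 500,000-cell samples taken days two, seven and twelve post-transduction. sgRNA amplicons from genomic DNA sequenced; growth phenotypes from normalized sgRNA abundances at days seven and twelve versus day two. Relative activity assigned from day seven (five days' growth).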

“ALDOA_ + _30077139.23-P1P2_00 (guide GGTCACCAGGACCCCTTCTG; listed as DNA, chemistry not fully specified)” was tested. Which relative_activity_day10 [1] did it give?
The relative_activity_day10 was 1.

And the gamma_day5 [2]?
Its gamma_day5 is −0.4127.

What about the gamma_day10 [2] of the same substance?
The gamma_day10 was −0.3665.

And the relative_activity_day5 [2]?
Its relative_activity_day5 is 1.

“ALDOA_ + _30077139.23-P1P2_06 (guide GGTCACCAGGATCCCTTCTG; listed as DNA, chemistry not fully specified)” was tested. Which relative_activity_day10 [1] did it give?
The relative_activity_day10 was 0.951.

And the gamma_day5 [2]?
Its gamma_day5 is −0.3967.

And the gamma_day10 [2]?
Its gamma_day10 is −0.3485.

And the relative_activity_day5 [2]?
The relative_activity_day5 was 0.9611.

Which results are given for “ALDOA_ + _30077139.23-P1P2_07 (guide GGTCACCAGGCCCCCTTCTG; listed as DNA, chemistry not fully specified)”?
relative_activity_day10 [1]: 0.9143; gamma_day5 [2]: −0.3609; gamma_day10 [2]: −0.3351; relative_activity_day5 [2]: 0.8744

What does the source list for “ALDOA_ + _30077139.23-P1P2_13 (guide GGTCACCAGGACCCCTTTTG; listed as DNA, chemistry not fully specified)”?
relative_activity_day10 [1]: 0.0006011; gamma_day5 [2]: 0.01706; gamma_day10 [2]: −0.0002203; relative_activity_day5 [2]: −0.04134

For “SEC61A1_−_127771295.23-P1_03: sgRNA targeting SEC61A1, GGTACTGACGTGTCTCTCGG, SEQ ID NO: 86 (listed as DNA, chemistry not fully specified)”, which “Perturb-seq pooled growth sgRNA counts, d5” value [2] is on record?
The value was 3530.

And the “Perturb-seq pooled growth sgRNA counts, d10” value [2]?
The value was 3563.

What about the “Perturb-seq pooled growth sgRNA counts, T0” value [2] of the same substance?
The value was 5904.

Which “Perturb-seq pooled growth sgRNA counts, d5” value [2] does the source give for “SEC61A1_−_127771295.23-P1_04: sgRNA targeting SEC61A1, GGCACTGAAGTGTCTCTCGG, SEQ ID NO: 87 (listed as DNA, chemistry not fully specified)” here?
Its value is 7999.

What about the “Perturb-seq pooled growth sgRNA counts, d10” value [2] of the same substance?
Its value is 10772.

What about the “Perturb-seq pooled growth sgRNA counts, T0” value [2] of the same substance?
The value was 5081.

With “TUBB_+_30688126.23-P1_00: sgRNA targeting TUBB, GCGGCAGGAAGGTTCTGAGA, SEQ ID NO: 23 (listed as DNA, chemistry not fully specified)” as the substance, how does the “Perturb-seq pooled growth sgRNA counts, d5” value [2] read?
The value was 2722.

What about the “Perturb-seq pooled growth sgRNA counts, d10” value [2] of the same substance?
The value was 1125.

And the “Perturb-seq pooled growth sgRNA counts, T0” value [2]?
Its value is 13570.

Which “Perturb-seq pooled growth sgRNA counts, d5” value [2] does the source give for “TUBB_+_30688126.23-P1_01: sgRNA targeting TUBB, GCAGCAGGAAGGTTCTGAGA, SEQ ID NO: 106 (listed as DNA, chemistry not fully specified)” here?
Its value is 1319.

And the “Perturb-seq pooled growth sgRNA counts, d10” value [2]?
The value was 962.

What about the “Perturb-seq pooled growth sgRNA counts, T0” value [2] of the same substance?
Its value is 7125.

How did the “Perturb-seq pooled growth sgRNA counts, d5” value [2] turn out when “TUBB_+_30688126.23-P1_03: sgRNA targeting TUBB, GCGGCAGCAAGGTTCTGAGA, SEQ ID NO: 108 (listed as DNA, chemistry not fully specified)” was run?
The value was 1680.

What about the “Perturb-seq pooled growth sgRNA counts, d10” value [2] of the same substance?
The value was 1221.

And the “Perturb-seq pooled growth sgRNA counts, T0” value [2]?
The value was 4751.

How did the “Perturb-seq pooled growth sgRNA counts, d5” value [2] turn out when “TUBB_+_30688126.23-P1_06: sgRNA targeting TUBB, GCGGCAGGACGGTTCTGAGA, SEQ ID NO: 107 (listed as DNA, chemistry not fully specified)” was run?
Its value is 1983.

And the “Perturb-seq pooled growth sgRNA counts, d10” value [2]?
The value was 1158.

And the “Perturb-seq pooled growth sgRNA counts, T0” value [2]?
Its value is 6235.

What does the source list for “TUBB_+_30688126.23-P1_10: sgRNA targeting TUBB, GCGGCAGGAAGGTTCAGAGA, SEQ ID NO: 109 (listed as DNA, chemistry not fully specified)”?
Perturb-seq pooled growth sgRNA counts, d5 [2]: 9877; Perturb-seq pooled growth sgRNA counts, d10 [2]: 12737; Perturb-seq pooled growth sgRNA counts, T0 [2]: 7085

With “non-targeting_00001: non-targeting negative control sgRNA, GTGCACCCGGCTAGGACCGG, SEQ ID NO: 161 (listed as DNA, chemistry not fully specified) [reference compound]” as the substance, how does the “Perturb-seq pooled growth sgRNA counts, d5” value [2] read?
Its value is 18946.

What about the “Perturb-seq pooled growth sgRNA counts, d10” value [2] of the same substance?
The value was 31944.

What about the “Perturb-seq pooled growth sgRNA counts, T0” value [2] of the same substance?
The value was 10415.

Which results are given for “non-targeting_00028: non-targeting negative control sgRNA, GGTGGCCTTTGCAATTGGCG, SEQ ID NO: 162 (listed as DNA, chemistry not fully specified) [reference compound]”?
Perturb-seq pooled growth sgRNA counts, d5 [2]: 20289; Perturb-seq pooled growth sgRNA counts, d10 [2]: 35652; Perturb-seq pooled growth sgRNA counts, T0 [2]: 8871

For “non-targeting_00054: non-targeting negative control sgRNA, GGGCCTGGACGAGCCTAAAA, SEQ ID NO: 163 (listed as DNA, chemistry not fully specified) [reference compound]”, which “Perturb-seq pooled growth sgRNA counts, d5” value [2] is on record?
Its value is 29818.

And the “Perturb-seq pooled growth sgRNA counts, d10” value [2]?
The value was 49855.

What about the “Perturb-seq pooled growth sgRNA counts, T0” value [2] of the same substance?
Its value is 12360.

What does the source list for “non-targeting_00089: non-targeting negative control sgRNA, GGGGTGAGGGTCCAATTCGG, SEQ ID NO: 164 (listed as DNA, chemistry not fully specified) [reference compound]”?
Perturb-seq pooled growth sgRNA counts, d5 [2]: 27748; Perturb-seq pooled growth sgRNA counts, d10 [2]: 44919; Perturb-seq pooled growth sgRNA counts, T0 [2]: 10841

Which “Perturb-seq pooled growth sgRNA counts, d5” value [2] does the source give for “non-targeting_00217: non-targeting negative control sgRNA, GTGAACTCAAAAATCCCGAC, SEQ ID NO: 165 (listed as DNA, chemistry not fully specified) [reference compound]” here?
Its value is 25185.

What about the “Perturb-seq pooled growth sgRNA counts, d10” value [2] of the same substance?
Its value is 42962.

And the “Perturb-seq pooled growth sgRNA counts, T0” value [2]?
Its value is 10286.

Which “Perturb-seq pooled growth sgRNA counts, d5” value [2] does the source give for “non-targeting_00283: non-targeting negative control sgRNA, GGGCCGACGGATAGGAGGGA, SEQ ID NO: 166 (listed as DNA, chemistry not fully specified) [reference compound]” here?
Its value is 18547.

And the “Perturb-seq pooled growth sgRNA counts, d10” value [2]?
The value was 27936.

What about the “Perturb-seq pooled growth sgRNA counts, T0” value [2] of the same substance?
The value was 8188.

Which “Perturb-seq pooled growth sgRNA counts, d5” value [2] does the source give for “non-targeting_00406: non-targeting negative control sgRNA, GGCGCCGGACTGGACCTCGA, SEQ ID NO: 167 (listed as DNA, chemistry not fully specified) [reference compound]” here?
Its value is 24099.

What about the “Perturb-seq pooled growth sgRNA counts, d10” value [2] of the same substance?
The value was 39839.

And the “Perturb-seq pooled growth sgRNA counts, T0” value [2]?
The value was 9974.

Which results are given for “non-targeting_00527: non-targeting negative control sgRNA, GTGGGAGCAGATCAAGACTC, SEQ ID NO: 168 (listed as DNA, chemistry not fully specified) [reference compound]”?
Perturb-seq pooled growth sgRNA counts, d5 [2]: 16865; Perturb-seq pooled growth sgRNA counts, d10 [2]: 27634; Perturb-seq pooled growth sgRNA counts, T0 [2]: 6840

How did the “Perturb-seq pooled growth sgRNA counts, d5” value [2] turn out when “non-targeting_00802: non-targeting negative control sgRNA, GCACGACGCTCCGGCACGCG, SEQ ID NO: 169 (listed as DNA, chemistry not fully specified) [reference compound]” was run?
Its value is 16759.

And the “Perturb-seq pooled growth sgRNA counts, d10” value [2]?
The value was 27842.

What about the “Perturb-seq pooled growth sgRNA counts, T0” value [2] of the same substance?
The value was 7096.

“non-targeting_01040: non-targeting negative control sgRNA, GTACGGCATGGCGCACTGCG, SEQ ID NO: 170 (listed as DNA, chemistry not fully specified) [reference compound]” was tested. Which “Perturb-seq pooled growth sgRNA counts, d5” value [2] did it give?
Its value is 0.

And the “Perturb-seq pooled growth sgRNA counts, d10” value [2]?
Its value is 0.

What about the “Perturb-seq pooled growth sgRNA counts, T0” value [2] of the same substance?
The value was 0.
